In ChEMBL document CHEMBL5550185, “Targeting hTERT Promoter G-Quadruplex DNA Structures with Small-Molecule Ligand to Downregulate hTERT Expression for Triple-Negative Breast Cancer Therapy” (J Med Chem, 2024):
The source made the active and inactive calls. The calls are words filed in the database; no cut-off is given here.

Legend:
[1] = tested on: Quadruplex DNA; experiment: Binding affinity to human TERT G4 DNA in Tris-HCl buffer at pH 7.4 assessed as fold increase in fluorescence signal at 5 uM by fluorescence spectrometer relative to control; format: nucleic-acid assay
[2] = tested on: dsDNA; experiment: Binding affinity to 4a4t duplex DNA (unknown origin) assessed as thermal stability by measuring change in melting temperature at 400 uM […]; format: nucleic-acid assay
[3] = tested on: Quadruplex DNA; experiment: Binding affinity to CKIT-2 G4 DNA (unknown origin) assessed as thermal stability by measuring change in melting temperature at 400 uM […]; format: nucleic-acid assay
[4] = tested on: Quadruplex DNA; experiment: Binding affinity to CKIT-2 G4 DNA (unknown origin) assessed as change in gibbs free energy at 400 uM by ITC analysis; format: nucleic-acid assay
[5] = tested on: Quadruplex DNA; experiment: Binding affinity to c-MYC Pu27 G4 DNA (unknown origin) assessed as thermal stability by measuring change in melting temperature at 400 uM […]; format: nucleic-acid assay
[6] = tested on: Quadruplex DNA; experiment: Binding affinity to c-MYC Pu27 G4 DNA (unknown origin) assessed as change in gibbs free energy at 400 uM by ITC analysis; format: nucleic-acid assay
[7] = tested on: Quadruplex DNA; experiment: Binding affinity to Bcl-2 G4 DNA (unknown origin) assessed as thermal stability by measuring change in melting temperature at 400 uM […]; format: nucleic-acid assay
[8] = tested on: Quadruplex DNA; experiment: Binding affinity to Telo21 G4 DNA (unknown origin) assessed as thermal stability by measuring change in melting temperature at 400 uM […]; format: nucleic-acid assay
[9] = molecular target: Quadruplex DNA; experiment: Binding affinity to Telo21 G4 DNA (unknown origin) assessed as dissociation constant by ITC analysis; format: nucleic-acid assay
[10] = species: Homo sapiens; experiment: Binding affinity to antisense i-hTERT DNA assessed as thermal stability by measuring change in melting temperature at 400 uM […]
[11] = Selectivity ratio of binding affinity to human TERT G4 DNA to binding affinity to VEGF G4 DNA (unknown origin)
[12] = Selectivity ratio of binding affinity to human TERT G4 DNA to binding affinity to Ckit-2 G4 DNA (unknown origin)
[13] = Drug localization in nucleus of telomerase-positive human MDA-MB-231 cells at 5 uM incubated for 10 mins by Hoechst 33342 staining based confocal microscopic analysis; format: ADME, subcellular; conditions: mda-mb-231, 10 min
[14] = tested on: MDA-MB-231; experiment: Cytotoxicity against human MDA-MB-231 cells transfected with hTERT-pcDNA3.1(+)-C-eBFP overexpressing hTERT assessed as inhibition of cell growth measured after 48 hrs by MTT assay; format: functional, cell-based; conditions: MDA-MB-231, 48 h
[15] = tested on: MDA-MB-231; experiment: Downregulation of CTCF mRNA expression in human MDA-MB-231 cells at 0 to 1.5 uM measured after 48 hrs by qRT-PCR analysis; format: functional, cell-based; conditions: dose 0-1.5 µM
[16] = tested on: MDA-MB-231; experiment: Inhibition of hTERT expression in human MDA-MB-231 cells assessed as reduction in pink foci in cytoplasm at 0.5 uM incubated for 48 hrs in presence of TBHP at 200 uM by immunofluorescence analysis; format: functional, cell-based
[17] = tested on: MDA-MB-231; experiment: Induction of mitochondrial dysfunction in human MDA-MB-231 cells assessed as downregulation of mitochondrial respiratory complex III-UQCRC2 expression incubated for 48 hrs by Western blot analysis; format: functional, cell-based; conditions: dose 0-1.5 µM
[18] = tested on: MDA-MB-231; experiment: Induction of mitochondrial phagocytosis in human MDA-MB-231 cells assessed as increase in autophagic vesicle formation measured after 48 hrs by MitoTracker Deep Red FM staining based live-cell confocal microscopic analysis; format: functional; conditions: dose 0-1.5 µM
[19] = tested on: MDA-MB-231; experiment: Induction of ferroptosis in human MDA-MB-231 cells assessed as reduction in GPX4 protein expression at 0 to 1.5 uM measured after 48 hrs by Western blot analysis; format: functional, cell-based; conditions: dose 0-1.5 µM
[20] = tested on: MDA-MB-231; experiment: Induction of ferroptosis in human MDA-MB-231 cells assessed as increase in ROS production measured after 48 hrs by Hoechst 33342 staining based confocal microscopic analysis; format: functional, cell-based; conditions: dose 0-1.5 µM
[21] = tested on: MDA-MB-231; experiment: Downregulation of ND2 gene expression in human MDA-MB-231 cells at 1 uM measured after 48 hrs by RNA-seq analysis; format: functional, cell-based
[22] = Upregulation of PLK2 gene expression in human MDA-MB-231 cells assessed as fold change at 1 uM measured after 48 hrs by RNA-seq analysis relative to control; format: functional
[23] = Upregulation of CCNB2 gene expression in human MDA-MB-231 cells assessed as fold change at 1 uM measured after 48 hrs by RNA-seq analysis relative to control; format: functional
[24] = Upregulation of IRS1 gene expression in human MDA-MB-231 cells assessed as fold change at 1 uM measured after 48 hrs by RNA-seq analysis relative to control; format: functional
[25] = Upregulation of TGFB3 gene expression in human MDA-MB-231 cells assessed as fold change at 1 uM measured after 48 hrs by RNA-seq analysis relative to control; format: functional
[26] = Upregulation of HLA-E gene expression in human MDA-MB-231 cells assessed as fold change at 1 uM measured after 48 hrs by RNA-seq analysis relative to control; format: functional
[27] = Upregulation of ZFP36L1 gene expression in human MDA-MB-231 cells assessed as fold change at 1 uM measured after 48 hrs by RNA-seq analysis relative to control; format: functional
[28] = Upregulation of RRAS gene expression in human MDA-MB-231 cells assessed as fold change at 1 uM measured after 48 hrs by RNA-seq analysis relative to control; format: functional
[29] = Upregulation of CCND2 gene expression in human MDA-MB-231 cells assessed as fold change at 1 uM measured after 48 hrs by RNA-seq analysis relative to control; format: functional
[30] = Toxicity in female Balb/c nude mouse xenografted with human MDA-MB-231 cells assessed as reduction in body weight at 2 to 5 mg/kg, iv administered via tail vein every 2 days for 16 days; format: organism-based; conditions: in vivo, 384 h, dose 2-5 mg/kg, time 16 day
[31] = Toxicity in female Balb/c nude mouse xenografted with human MDA-MB-231 cells assessed as signs of poor health at 2 to 5 mg/kg, iv administered via tail vein every 2 days for 16 days; format: organism-based; conditions: in vivo, 384 h, dose 2-5 mg/kg, time 16 day
[32] = tested on: MDA-MB-231; experiment: Antitumor activity against human MDA-MB-231 cells xenografted in female Balb/c mouse assessed as reduction in tumor volume at 2 mg/kg, iv administered via tail vein every 2 days for 16 days relative to control; format: functional; set-up: scale not given: the % may be the effect or the level left; conditions: time 16 day
[33] = tested on: MDA-MB-231; experiment: Antitumor activity against human MDA-MB-231 cells xenografted in iv dosed female Balb/c mouse assessed as nuclear fragmentation in tumor administered via tail vein every 2 days for 16 days by H and E staining based analysis; format: functional, organism-based; conditions: dose 2-5 mg/kg, time 16.0 day
[34] = Toxicity in female Balb/c nude mouse xenografted with human MDA-MB-231 cells assessed as change in RBC count at 2 to 5 mg/kg, iv administered via tail vein every 2 days for 16 days; format: organism-based, Erythrocyte; conditions: in vivo, 384 h, dose 2-5 mg/kg, time 16 day
[35] = Toxicity in female Balb/c nude mouse xenografted with human MDA-MB-231 cells assessed as pathological changes in liver at 2 to 5 mg/kg, iv administered via tail vein every 2 days for 16 days by H and E staining based analysis; format: organism-based; conditions: in vivo, 384 h, dose 2-5 mg/kg, time 16 day

- fold change (FC) [1]: 29
- ΔTm [2]: 1.65 °C
- ΔTm [3]: 2.45 °C
- deltaG [4]: -7.05 kcal/mol
- ΔTm [5]: 2.59 °C
- deltaG [6]: -6.59 kcal/mol
- ΔTm [7]: 6.4 °C
- ΔTm [8]: 8.85 °C
- Kd [9]: 3.28 µM
- ΔTm [10]: 8.82 °C
- Selectivity ratio [11]: 2
- Selectivity ratio [12]: 2
- Drug uptake [13]: Active
Compound: C[n+]1c(/C=C/c2c[nH]c3ccccc23)cc(/C=C2\Sc3ccccc3N2CCCN2CCC(C(F)(F)F)CC2)c2ccccc21.[I-]
- IC50 [14]: 3.3 µM
- Activity [15]: inactive
- inhibition [16]: Active
- Activity [17]: Dose-Dependent Effect
- Activity [18]: Active
- Activity [19]: Active
- Activity [20]: Dose-Dependent Effect
- Activity [21]: Active
- fold change (FC) [22]: >2
- fold change (FC) [23]: >2
- fold change (FC) [24]: >2
- fold change (FC) [25]: >2
- fold change (FC) [26]: >2
- fold change (FC) [27]: >2
- fold change (FC) [28]: >2
- fold change (FC) [29]: >2
- Activity [30]: Non-Toxic
- Activity [31]: Non-Toxic
- Activity [32]: 52.6%
- Activity [33]: Dose-Dependent Effect
- Activity [34]: Non-Toxic
- Activity [35]: Non-Toxic
